Measurements from patent publication US12337037B2, “Taxol conjugate compounds, pharmaceutical compositions comprising the same, and methods for their use” (N1 Life, Inc, priority 2021, dated 2025).
Entries after “also recorded” stand apart in the source; their conditions may differ. Where two headings read alike, the source gives them in different places.

Columns and labels:
[1] = test system: Human ovarian cancer (SKOV-3-GFP) cells; test: Efficacy in metastatic ovarian cancer model (peritoneal disseminated metastasis); format: in vivo, Female athymic nude mice; settings: for acute toxic effect / animal death: ovarian cancer model; for mean tumor fluorescence area as % of the Vehicle (PBS) group / Average tumor area on day 0 (MEAN ± SD) / Average tumor area on day 21 (MEAN ± SD) / Mean tumor mass (g) (MEAN ± SD) / Average tumor inhibitory rate (%) (MEAN ± SD): Taxol 10 mg/kg; for mean tumor fluorescence area as % of the Vehicle (PBS) group: Compound 3 / Compound 5 9.6 mg/kg IP Q5D; for Average tumor area on day 0 (MEAN ± SD): baseline fluorescence area; for Average tumor area on day 21 (MEAN ± SD): fluorescence area; for Mean tumor mass (g) (MEAN ± SD): conjugate 9.6 mg/kg IP Q5D; for Average tumor inhibitory rate (%) (MEAN ± SD): from final tumor weights
Experimental: The tumor samples were then stored in formalin solution.
Method: The method was the same as described for Biological Example 4.
Endpoint tumor load of each group: At Day 21 after administration, the tumor load of each group was calculated by dissecting and weighing the tumor in the abdominal cavity. The vehicle was the control.
Tumor inhibitory rate (IR): Tumor IR was calculated based on the final average tumor weights according to the formula: IR (%)=(1-treatment(t)/control(c))×100

[2] = test system: liver cancer Hep 3B cells; test: CCK-8 cytotoxicity / anti-proliferation assay, Hep 3B; format: cell-based; settings: for Anti-proliferation %: 4 μM
Experimental: (§1) Cytotoxicity Assay—CCK8 Cancer Cells
The CCK-8 assay was applied to study the cytotoxicity of the peptide drug conjugates and their inhibition of proliferation of cancer cells. First, 2˜10×10^3 cells (depending on the rate of growth of different cell lines) with 100 μL, DMEM media were seeded in normal culture medium into each well of a 96-well plate. The cells were then cultured overnight at 37° C. with 4˜5% CO2. Different doses (4000, 2000, 1000, 500 nM for Hep3B, Hep G2 and MCF7/MBA-MD-231; 1000, 333.3, 100.0, 33.33, 3.333, 1.000, 0.333 nM for MCF7/ADR, 22Rv1, CNE1, HCT116, DLD-1) of Taxol and peptide drugs were added. After 48˜72 hour incubation, CCK-8 solution was added to each well. The cells were then incubated at 37° C. for 4 hours. The optical density was measured at 450/650 nm using a multiscan spectrometer (PerkinElmer's EnSpire Multilabel Plate Reader). The optical density is linearly proportional to the number of living cells in the sample: […]

[3] = test system: DLD-1 colorectal adenocarcinoma cell line; test: cells
Experimental: as §1
(§2) The CCK-8 assay was applied to study the cytotoxicity of the peptide drug conjugates and their inhibition of proliferation of cancer cells. First, 2˜10×10^3 cells (depending on the rate of growth of different cell lines) with 100 μL, DMEM media were seeded in normal culture medium into each well of a 96-well plate. The cells were then cultured overnight at 37° C. with 4˜5% CO2. Different doses (4000, 2000, 1000, 500 nM for Hep3B, Hep G2 and MCF7/MBA-MD-231; 1000, 333.3, 100.0, 33.33, 3.333, 1.000, 0.333 nM for MCF7/ADR, 22Rv1, CNE1, HCT116, DLD-1) of Taxol and peptide drugs were added. After 48˜72 hour incubation, CCK-8 solution was added to each well. The cells were then incubated at 37° C. for 4 hours. The optical density was measured at 450/650 nm using a multiscan spectrometer (PerkinElmer's EnSpire Multilabel Plate Reader). The optical density is linearly proportional to the number of living cells in the sample:
(§3) The plate layout for MCF7/ADR, 22Rv1, CNE1, HCT116, DLD-1 cell lines is shown below.

[4] = test system: HCT116 human colorectal carcinoma cell; test: cells
Experimental: as §1, §2, §3

[5] = test system: MCF7/ADR multidrug-resistant breast cancer cell; test: cells; settings: read-out: IC50 nM
Experimental: as §1, §2, §3

[6] = test system: CNE1 nasopharyngeal carcinoma cell line; test: cells; settings: read-out: IC50 nM
Experimental: as §1, §2, §3

[7] = test system: 22Rv1 human prostate carcinoma epithelial cell line; test: cells
Experimental: as §1, §2, §3

[8] = Table 8B (Compound 5 set), Compd 5 9.6 mg/kg IP Q5D
[9] = Table 9A (titled Compound 3 set), Day 21
[10] = Table 10B (Compound 5 set), Day 21, Compd 5 9.6 mg/kg IP Q5D
[11] = read-out: IC50 nM, HCT116 cells
[12] = Table 8A (Compound 3 set), Compd 3 9.6 mg/kg IP Q5D
[13] = Table 9B (titled Compound 5 set), Day 21
[14] = Table 10A (Compound 3 set), Day 21, Compd 3 9.6 mg/kg IP Q5D

| SMILES | acute toxic effect / animal death ([1]; 9.6 mg/kg IP Q5D) | mean tumor fluorescence area as % of the Vehicle (PBS) group ([1]; Day 21) | Average tumor area on day 0 (MEAN ± SD) [1, 8] | Average tumor area on day 21 (MEAN ± SD) [1, 8] | Mean tumor mass (g) (MEAN ± SD) [1, 9] | Average tumor inhibitory rate (%) (MEAN ± SD) [1, 10] | Anti-proliferation % [2] [%] | IC50 ([3]; read-out: IC50 nM, DLD-1 cells) [nM] | IC50 [4, 11] [nM] | IC50 ([5]; MCF7/ADR cells) [nM] | IC50 ([6]; CNE1 cells) [nM] | IC50 ([7]; read-out: IC50 nM, 22Rv1 cells) [nM] | Average tumor area on day 0 (MEAN ± SD) [1, 12] | Average tumor area on day 21 (MEAN ± SD) [1, 12] | Mean tumor mass (g) (MEAN ± SD) [1, 13] | Average tumor inhibitory rate (%) (MEAN ± SD) [1, 14] | also measured |
| --- | --- | --- | --- | --- | --- | --- | --- | --- | --- | --- | --- | --- | --- | --- | --- | --- | --- |
| CC(=O)N[C@H](CSSCCCC(=O)O[C@@H](C(=O)O[C@H]1C[C@@]2(O)[C@@H](OC(=O)c3ccccc3)[C@@H]3[C@]4(OC(C)=O)CO[C@@H]4C[C@H](O)[C@@]3(C)C(=O)[C@H](OC(C)=O)C(=C1C)C2(C)C)[C@@H](NC(=O)c1ccccc1)c1ccccc1)C(=O)N[C@H](CCCNC(=N)N)C(=O)N[C@H](CCCNC(=N)N)C(=O)N[C@H](CCCNC(=N)N)C(=O)N[C@H](CCCNC(=N)N)C(=O)N[C@H](CCCNC(=N)N)C(=O)N[C@H](CCCNC(=N)N)C(=O)N[C@H](CCCNC(=N)N)C(=O)N[C@H](CCCNC(=N)N)C(N)=O [Compound 5, Ac-D-Cysteine (paclitaxel-4-mercaptobutanoate)-D-Arginine8-NH2] | caused animal death; also recorded: one animal died at Day 18 | 10% | 24.9 ± 6.6 | 28.7 ± 19.8 | 0.178 ± 0.143 | 79±11 | 23.2 | 110 | 23.5 | > 1000 | 19.3 | 29.3 | – | – | – | – | tumor inhibitory effect, less effective than Taxol ([1]; 9.6 mg/kg vs Taxol 10 mg/kg): about 10%; Average tumor inhibitory rate (%) (MEAN ± SD) ([1]; Table 10B (Compound 5 set), Day 21, Compd 5 9.6 mg/kg IP Q5D, listed as Compd 5): 79 ± 11% |
| CC(=O)O[C@H]1C(=O)[C@@]2(C)[C@H]([C@H](OC(=O)c3ccccc3)[C@]3(O)C[C@H](OC(=O)[C@H](O)[C@@H](NC(=O)c4ccccc4)c4ccccc4)C(C)=C1C3(C)C)[C@]1(OC(C)=O)CO[C@@H]1C[C@@H]2O [Taxol, paclitaxel] | – | 8-16% | 22.8 ± 4.1 | 22.7 ± 15.5 | 0.174 ± 0.141 | 84 ± 10 | 11.5 | – | – | – | – | – | 18.4 ± 3.3 | 24.8 ± 27.1 | 0.1970 ± 0.1248 | 90 ± 8 | IC50 ([3]; Homo sapiens, DLD-1, read-out: IC50 nM): 9.98 nM; IC50 ([4]; Homo sapiens, HCT-116, read-out: IC50 nM): 2.79 nM; IC50 ([5]; Homo sapiens, NCI/ADR-RES): > 1000 nM; IC50 [6]: 1.12 nM; IC50 ([7]; Homo sapiens, 22Rv1, read-out: IC50 nM): 4.95 nM |
| CC(=O)N[C@@H](CSSCCCC(=O)OC(C(=O)O[C@H]1C[C@@]2(O)[C@@H](OC(=O)c3ccccc3)[C@@H]3[C@]4(OC(C)=O)CO[C@@H]4C[C@H](O)[C@@]3(C)C(=O)[C@H](OC(C)=O)C(=C1C)C2(C)C)[C@@H](NC(=O)c1ccccc1)c1ccccc1)C(=O)N[C@H](CCCNC(=N)N)C(=O)N[C@H](CCCNC(=N)N)C(=O)N[C@H](CCCNC(=N)N)C(=O)N[C@H](CCCNC(=N)N)C(=O)N[C@H](CCCNC(=N)N)C(=O)N[C@H](CCCNC(=N)N)C(=O)N[C@H](CCCNC(=N)N)C(=O)N[C@H](CCCNC(=N)N)C(N)=O (stereo partly drawn) [Compound 3, Ac-L-Cysteine (paclitaxel-4-mercaptobutanoate)-D-Arginine8-NH2] | no obvious acute toxic effect | about 20% | – | – | – | – | 36.0 | 62 | 21.5 | 438 | 15.9 | 21.6 | 18.6 ± 5.3 | 30.9 ± 24.2 | 0.2555 ± 0.1388 | 90±8 | tumor inhibition effect, better than Compound 5 ([1]; 9.6 mg/kg): at least 10%; average tumor fluorescence area as % of the Taxol (10 mg/kg) group ([1]; Day 21, 9.6 mg/kg IP Q5D): about 100%; average tumor weight as % of the Vehicle group ([1]; Day 21, 9.6 mg/kg IP Q5D): about 10%; Average tumor inhibitory rate (%) (MEAN ± SD) ([1]; Table 10A (Compound 3 set), Day 21, Compd 3 9.6 mg/kg IP Q5D, listed as Compd 3): 90 ± 8%; cancer cell inhibition compared to Compound 5 (FIG. 2A) ([2]; all tested concentrations (500-4000 nM)): substantially superior to cancer cell inhibition compared to Compound 5 at all tested concentrations |
